Test results as given in article PMC8956739, “A synthetic lipopeptide targeting top-priority multidrug-resistant Gram-negative pathogens” (Nature Communications, 2022).
Values joined by “and” are separate entries in the source; they are usually repeats but may differ in a detail not shown here. Equal entries are not always repeated. Where two headings read alike, the source gives them in different places. Residues, ends and D or L forms follow the SMILES beside them.

What was measured:
[1] = in vivo
Protocol: The plasma pharmacokinetic profiles of F365 and polymyxin B were assessed in Swiss mice (female, 7-week-old, 22–28 g) after a single intraperitoneal dose (5 mg/kg, n = 3). Blood samples were collected at various time points over 24 h post dosing for analysis. The plasma pharmacokinetic profiles of F365 (n = 5) and polymyxin B (1 mg/kg, n = 11) in Sprague-Dawley rats (male, 10-week-old, 280 to 330 g) were assessed after intravenous administration (1 min) of F365 and polymyxin B via an indwelling jugular vein cannula. Blood samples (~0.3 mL) were collected via an indwelling carotid artery cannula at various time points over 24 h post dosing. Urine samples were collected at 4 °C using a metabolic cage during the period between 0 and 24 h post dosing. Concentrations of F365 and polymyxin B in plasma and urine samples were determined using LC-MS/MS and pharmacokinetic analysis was conducted using WinNonlin (Pharsight Corp., Mountain View, CA). The ELF pharmacokinetic profiles of F365 and polymyxin B was determined in neutropenic Swiss mice (female, 7-week-old, 22–28 g) after subcutaneous injection (40 mg/kg, n = 3). Bronchoalveolar lavage (BAL) samples were collected at various time points over 24 h post dosing from the cannulated trachea using Milli-Q water as BAL washing media. The average volume of ELF in mice was calculated by the ratio of urea concentrations in plasma and BAL samples. Concentrations of F365 and polymyxin B in plasma and BAL were analyzed by LC-MS/MS. Pharmacokinetic parameters were calculated using a non-compartment model with WinNonlin. For mouse, rat, and human plasma protein binding of F365 and polymyxin B, pooled plasma samples (n = 3) from each species were spiked with F365 or polymyxin B. The spiked plasma samples were subjected to ultrafiltration and the corresponding filtrates were analyzed by LC-MS/MS to determine the concentration of F365 and polymyxin B and the protein binding in each species.

[2] = test system: P. aeruginosa FADDI-PA038; assay: Neutropenic mouse pneumonia model; type: in vivo; details: for bacterial killing in lung at 24 h vs pre-treatment inoculum: 45 mg/kg/d IP in three divided doses every 8 h; for Tukey HSD diff, Pre-treatment minus treated group (Log10 CFU/lung) / Tukey HSD diff, Vehicle minus treated group (Log10 CFU/lung): Fig. a; for Log10 CFU/lung: Figure 3a, individual mice
Protocol: (§1) The experimental methodology for the neutropenic mouse lung infection model was previously described in detail. Briefly, Swiss mice (female, 7-week-old, 22–28 g) were rendered neutropenic by intraperitoneal administration of cyclophosphamide, 4 days (150 mg/kg) and 1 day (100 mg/kg) prior to inoculation. Lung infection was established by the administration of 25 µL of early log-phase bacterial suspension (polymyxin-susceptible or resistant isolate, 4 × 10^7 CFU/mL), directly into the lungs via the trachea using a MicroSprayer™ device. Lipopeptide solutions were prepared in sterile saline. At 2 h after inoculation, mice (n = 3 or 4) were administered lipopeptide (45–240 mg/kg/d free base) or control (sterile saline) via an intraperitoneal or subcutaneous bolus injection in three divided doses every 8 h. At 0 or 24 h after the administration of lipopeptide solution or saline (control), animals were euthanized and lungs were collected and homogenized under sterile conditions. Homogenate was filtered and the filtrate was collected, serially diluted in sterile saline, and spread on nutrient agar plates. Agar plates were incubated at 37 °C overnight for bacterial colony counting and the bacterial load of the lung (log10 CFU/lung) in each mouse was calculated. In vivo efficacy was calculated as the difference of the log10 CFU/lung values between the treated mice at 24 h and the pre-treatment (control) at 0 h (Δlog10 CFU/lung = log10 [treated] CFU/lung − log10 [pre-treatment] CFU/lung).

[3] = test system: K. pneumoniae FADDI-KP065; assay: Neutropenic mouse pneumonia model; type: in vivo; details: for bacterial killing in lung at 24 h vs pre-treatment inoculum: 45 mg/kg/d IP in three divided doses every 8 h; for Tukey HSD diff, Pre-treatment minus treated group (Log10 CFU/lung) / Tukey HSD diff, Vehicle minus treated group (Log10 CFU/lung): Fig. c; for Log10 CFU/lung: Figure 3c, individual mice
Protocol: as §1

A. baumannii FADDI-AB051 = assay: Neutropenic mouse pneumonia model; type: in vivo; details: for bacterial killing in lung at 24 h vs pre-treatment inoculum: 45 mg/kg/d IP in three divided doses every 8 h; for Tukey HSD diff, Pre-treatment minus treated group (Log10 CFU/lung) / Tukey HSD diff, Vehicle minus treated group (Log10 CFU/lung): Fig. b; for Log10 CFU/lung: Figure 3b, individual mice
Protocol: as §1

[4] = Acute toxicity in mice (maximum tolerated dose, IV bolus); type: in vivo, mouse; details: mouse, in vivo, iv, single IV bolus dose, replicates 1-4; read-out: MTD, single replicate
How it was run: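 Female Swiss mice (7 weeks, 22–28 g) given single IV tail-vein bolus of lipopeptide in 0.9% saline, dosed as mg/kg free base. Clinical toxicity signs monitored over 0–24 h, most frequently in first 2 h.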

[5] = 90 mg/kg/d IP in three divided doses every 8 h

Row | Compound | Free AUC(0-∞) in ELF (estimated fAUCELF) ([1]; mouse, sc, 40 mg/kg) [ng·h/mL] | Total CL ([1]; mouse, sc, 40 mg/kg) [mL/min/kg] | half-life ([1]; mouse, sc, 40 mg/kg) [h] | half-life ([1]; rat, iv, 1 mg/kg) [h] | bacterial killing in lung at 24 h vs pre-treatment inoculum [2] | Tukey HSD diff, Pre-treatment minus treated group (Log10 CFU/lung) ([2]; 45mg/kg/d) | Tukey HSD diff, Vehicle minus treated group (Log10 CFU/lung) ([2]; 45mg/kg/d) | Log10 CFU/lung ([2]; 45mg/kg/d) | bacterial killing in lung at 24 h vs pre-treatment inoculum [3] | Tukey HSD diff, Pre-treatment minus treated group (Log10 CFU/lung) ([3]; 45mg/kg/d) | Tukey HSD diff, Vehicle minus treated group (Log10 CFU/lung) ([3]; 45mg/kg/d) | Log10 CFU/lung ([3]; 45mg/kg/d) | bacterial killing in lung at 24 h vs pre-treatment inoculum (A. baumannii FADDI-AB051) | Tukey HSD diff, Pre-treatment minus treated group (Log10 CFU/lung) (A. baumannii FADDI-AB051; 45mg/kg/d) | Tukey HSD diff, Vehicle minus treated group (Log10 CFU/lung) (A. baumannii FADDI-AB051; 45mg/kg/d) | Log10 CFU/lung (A. baumannii FADDI-AB051; 45mg/kg/d) | MTD [4] [mg/kg] | also measured
1 | Polymyxin B [reference compound] | 10000 | 8.33 | 6.70 | 1.45 | did not show any significant killing | -1.2575 | 1.661 | 7.47 Log10 CFU/lung and 7.01 Log10 CFU/lung and 7.92 Log10 CFU/lung and 8.38 Log10 CFU/lung | did not show any significant killing | -0.6875 | 1.1935 | 7.24 Log10 CFU/lung and 7.26 Log10 CFU/lung and 7.84 Log10 CFU/lung and 7.07 Log10 CFU/lung | did not show any significant killing | -1.5825 | 0.4067 | 8.40 Log10 CFU/lung and 8.27 Log10 CFU/lung and 8.53 Log10 CFU/lung and 8.10 Log10 CFU/lung | – | AUC(0-∞) in ELF ([1]; mouse, sc, 40 mg/kg): 80000 ng·h/mL
2 | CCCCCCCC(=O)N[C@@H](CCN)C(=O)N[C@H](C(=O)N[C@@H](CN)C(=O)N[C@H]1CCNC(=O)[C@H]([C@@H](C)O)NC(=O)[C@H](CCN)NC(=O)[C@H](CCN)NC(=O)[C@H](CC)NC(=O)[C@@H](CC(C)C)NC(=O)[C@H](CCN)NC1=O)[C@@H](C)O [Lipopeptide F287] (HELM PEPTIDE1{[CCCCCCCC(=O)[*:2]].[Dab].T.[NC[C@H](N[*:1])C(=O)[*:2]].[Dab].[Dab].[dL].[Abu].[Dab].[Dab].T}$PEPTIDE1,PEPTIDE1,5:R3-11:R2$$$V2.0) | – | – | – | – | – | – | – | – | – | – | – | – | – | – | – | – | 6 | –
3 | CC[C@@H]1NC(=O)[C@@H](CC(C)C)NC(=O)[C@H](CCN)NC(=O)[C@@H](NC(=O)[C@H](CN)NC(=O)[C@@H](NC(=O)[C@H](CCN)NC(=O)c2ccc(Cl)cc2Cl)[C@@H](C)O)CCNC(=O)[C@H]([C@@H](C)O)NC(=O)[C@H](CCN)NC(=O)[C@H](CCN)NC1=O [Lipopeptide F365] (HELM PEPTIDE1{[O=C(c1ccc(Cl)cc1Cl)[*:2]].[Dab].T.[NC[C@H](N[*:1])C(=O)[*:2]].[Dab].[Dab].[dL].[Abu].[Dab].[Dab].T}$PEPTIDE1,PEPTIDE1,5:R3-11:R2$$$V2.0) | 86200 | 7.67 | 3.39 | 0.91 | did not show any significant killing | -0.4375 | 2.481 | 7.09 Log10 CFU/lung and 6.80 Log10 CFU/lung and 6.82 Log10 CFU/lung and 6.79 Log10 CFU/lung | did not show any significant killing | 0.265 | 2.146 | 4.76 Log10 CFU/lung and 7.31 Log10 CFU/lung and 6.40 Log10 CFU/lung and 7.13 Log10 CFU/lung | did not show any significant killing | -1.2425 | 0.7467 | 7.89 Log10 CFU/lung and 8.25 Log10 CFU/lung and 7.87 Log10 CFU/lung and 7.93 Log10 CFU/lung | 13 | AUC(0-inf) ([1]; mouse, sc, 40 mg/kg): 86200 ng·h/mL; Cmax in ELF relative to polymyxin B ([1]; mouse, sc, 40 mg/kg): 3 fold; urinary recovery relative to polymyxin B ([1]; rat): > 4 fold; AUC(0-inf) ([1]; rat, iv, 1 mg/kg): 2400 ng·h/mL; clearance ([1]; rat, iv, 1 mg/kg): 7.67 mL/min/kg; bacterial killing in lung at 24 h [2, 5]: bacterial killing; Tukey HSD diff, Pre-treatment minus treated group (Log10 CFU/lung) ([2]; 90mg/kg/d): 1.005; Tukey HSD diff, Vehicle minus treated group (Log10 CFU/lung) ([2]; 90mg/kg/d): 3.9235; Log10 CFU/lung ([2]; 90mg/kg/d): 5.12 Log10 CFU/lung and 5.34 Log10 CFU/lung and 5.83 Log10 CFU/lung and 5.44 Log10 CFU/lung; bacterial killing in lung at 24 h [3, 5]: bacterial killing; Tukey HSD diff, Pre-treatment minus treated group (Log10 CFU/lung) ([3]; 90mg/kg/d): 2.6475; Tukey HSD diff, Vehicle minus treated group (Log10 CFU/lung) ([3]; 90mg/kg/d): 4.5285; Log10 CFU/lung ([3]; 90mg/kg/d): 5.21 Log10 CFU/lung and 3.53 Log10 CFU/lung and 3.48 Log10 CFU/lung and 3.85 Log10 CFU/lung; bacterial killing in lung at 24 h (A. baumannii FADDI-AB051; [5]): bacterial killing; Tukey HSD diff, Pre-treatment minus treated group (Log10 CFU/lung) (A. baumannii FADDI-AB051; 90mg/kg/d): 2.8025; Tukey HSD diff, Vehicle minus treated group (Log10 CFU/lung) (A. baumannii FADDI-AB051; 90mg/kg/d): 4.792; Log10 CFU/lung (A. baumannii FADDI-AB051; 90mg/kg/d): 3.25 Log10 CFU/lung and 3.88 Log10 CFU/lung and 6.08 Log10 CFU/lung and 2.55 Log10 CFU/lung
